Source: patent publication US8721858B2, “Non-focusing tracers for indirect detection in electrophoretic displacement techniques” (The Board of Trustees of the Leland Stanford Junior …, priority 2010, dated 2014)

Experiments:
[1] = Estimated effective mobilities in ITP zones of FIGS. 4a-b; settings: % of −17.8×10^−9 m^2V^−1s^−1
Description: We used numerical codes to predict the composition, pH, and fluorescence intensity of each zone for assay design and theory validation. Transient and steady state problems can be simulated with programs such as Simul 5, or a MATLAB-based program developed in-house. For fast solution of most problems, however, we used a steady-state solver written in-house based on the RFQ method described by Beckers and Everaerts. This code adjusts ion mobility and pKa for ionic strength based on the Davies equation and Robinson-Stokes model, respectively. See Table 1 above for the limiting electrophoretic mobilities and pKas of example chemicals used in simulations.
Further details relating to FIGS. 4a-b are as follows. FIGS. 4a-b show detection of HEPES and MOPS with a counterionic (FIG. 4a) and overspeeding coionic (FIG. 4b) fluorescent non-focusing tracer. Top panes are ratios of zone intensities IA/IL, and bottom panes are corresponding images. The zones are, from left to right, TE (tricine), HEPES, MOPS, and LE (MES). The concentration of the tracer increases in high mobility zones. The mobility of the coionic tracer Alexa Fluor 488 (AF488) is close to that of MES, so it is especially sensitive in this region. […]. […] For the left plots, the LE contains 50 μM R6G. For the right plots, the TE contains 5 μM AF488. […].
As discussed in Theory, the sensitivity of counterspeeders tends to be approximately uniform for all analyte mobilities. In contrast, underspeeders and overspeeders offer the potential advantage of extreme sensitivity to analytes with mobilities approximately equal to that of the tracer. In FIGS. 4a-b, we estimate the effective mobility of the LE (MES) to be −17.8×10^−9 m^2V^−1s^−1, and the effective mobilities of MOPS, HEPES, and tricine to be respectively 58%, 41%, and 30% of that value. For the counterspeeder of FIG. 4a, the ratios of analyte-to-LE zone intensities are similar to the effective mobility ratios for MOPS, HEPES, and tricine (I/IL values of 0.69, 0.51, and 0.34, respectively). […]

[2] = limiting fully ionized mobility, value = mobility × 10^9; cited from earlier work

Row | effective mobility relative to that of the LE (MES) [1] [%] | SMILES | fully-ionized Mobility · 10^9 [2]
1 | 58 | O=S(=O)(O)CCCN1CCOCC1 [MOPS, 3-morpholinopropane-1-sulfonic acid] | –
2 | – | Cl [Chloride] | (−1, 79.1) m^2V^−1s^−1
3 | – | CC(=O)O [Acetic acid] | (−1, 42.4) m^2V^−1s^−1
4 | 30 | O=C(O)CNC(CO)(CO)CO [Tricine, N-(2-Hydroxy-1,1-bis(hydroxymethyl)ethyl)glycine] | (−1, 26.6) m^2V^−1s^−1
5 | 41 | O=S(=O)(O)CCN1CCN(CCO)CC1 [HEPES, 2-[4-(2-hydroxyethyl)piperazin-1-yl]ethanesulfonic acid] | (−1, 21.8) m^2V^−1s^−1
6 | – | NC(CO)(CO)CO [Tris, 2-Amino-2-hydroxymethyl-propane-1,3-diol] | (−1, 29.5) m^2V^−1s^−1
7 | – | [Ba+2].[OH-].[OH-] [Ba(OH)2] | (+2 ,66) m^2V^−1s^−1
